# PubChem BioAssay (NCI)
#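 How tested: cells in 96-well plates exposed to compound for 48 hours at five concentrations. GI50: concentration for 50% inhibition of growth. Definition used: TGI = concentration required for complete inhibition of growth.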
# Assays:
# Test in all cases: NCI anticancer screen, dose series, 48 h
# RPMI-8226 leukemia = tested on: RPMI-8226 leukemia
# K-562 leukemia = tested on: K-562 leukemia
# HL-60(TB) leukemia = tested on: HL-60(TB) leukemia
# HCC-2998 colon = tested on: HCC-2998 colon
# MALME-3M melanoma = tested on: MALME-3M melanoma
# IGROV1 ovarian = tested on: IGROV1 ovarian
# BT-549 breast = tested on: BT-549 breast
# SN12C renal = tested on: SN12C renal
# MDA-MB-231 breast = tested on: MDA-MB-231 breast
# SNB-75 CNS = tested on: SNB-75 CNS
# KM12 colon = tested on: KM12 colon
# MDA-MB-435 = tested on: MDA-MB-435
# OVCAR-4 ovarian = tested on: OVCAR-4 ovarian
# CAKI-1 renal = tested on: CAKI-1 renal
# SF-539 CNS = tested on: SF-539 CNS
# SK-OV-3 ovarian = tested on: SK-OV-3 ovarian
# OVCAR-8 ovarian = tested on: OVCAR-8 ovarian
# SK-MEL-5 melanoma = tested on: SK-MEL-5 melanoma
# HOP-62 NSCLC = tested on: HOP-62 NSCLC
# NCI-H226 lung = tested on: NCI-H226 lung
# U251 CNS = tested on: U251 CNS
# RXF 393 renal = tested on: RXF 393 renal
# SK-MEL-28 melanoma = tested on: SK-MEL-28 melanoma
# COLO 205 colon = tested on: COLO 205 colon
# HS 578T breast = tested on: HS 578T breast
# SNB-19 CNS = tested on: SNB-19 CNS
compound,measurement,setting,value
COc1cccc(CNCCN2C(=O)c3ccc4c5c(ccc(c35)C2=O)C(=O)N(CCNCc2cccc(OC)c2)C4=O)c1,GI50,RPMI-8226 leukemia,2.84 µM
same,TGI,RPMI-8226 leukemia,7.45 µM
same,GI50,K-562 leukemia,3.03 µM
same,TGI,K-562 leukemia,8.52 µM
same,GI50,HL-60(TB) leukemia,2.56 µM
same,TGI,HL-60(TB) leukemia,4.99 µM
same,GI50,HCC-2998 colon,5.21 µM
same,TGI,HCC-2998 colon,19.1 µM
same,GI50,MALME-3M melanoma,1.8 µM
same,TGI,MALME-3M melanoma,3.76 µM
same,GI50,IGROV1 ovarian,2.36 µM
same,TGI,IGROV1 ovarian,6.34 µM
same,GI50,BT-549 breast,2.43 µM
same,TGI,BT-549 breast,6.12 µM
same,GI50,SN12C renal,1.67 µM
same,TGI,SN12C renal,3.24 µM
same,GI50,MDA-MB-231 breast,2.39 µM
same,TGI,MDA-MB-231 breast,6.61 µM
same,GI50,SNB-75 CNS,11.2 µM
same,TGI,SNB-75 CNS,28 µM
same,GI50,KM12 colon,1.75 µM
same,TGI,KM12 colon,3.93 µM
same,GI50,MDA-MB-435,1.84 µM
same,TGI,MDA-MB-435,3.48 µM
same,GI50,OVCAR-4 ovarian,1.4 µM
same,TGI,OVCAR-4 ovarian,2.71 µM
same,GI50,CAKI-1 renal,2.61 µM
same,TGI,CAKI-1 renal,8.27 µM
same,GI50,SF-539 CNS,1.79 µM
same,TGI,SF-539 CNS,3.4 µM
same,GI50,SK-OV-3 ovarian,19.1 µM
same,TGI,SK-OV-3 ovarian,35.5 µM
same,GI50,OVCAR-8 ovarian,2.15 µM
same,TGI,OVCAR-8 ovarian,4.85 µM
same,GI50,SK-MEL-5 melanoma,1.52 µM
same,TGI,SK-MEL-5 melanoma,2.86 µM
same,GI50,HOP-62 NSCLC,15 µM
same,TGI,HOP-62 NSCLC,30.8 µM
same,GI50,NCI-H226 lung,34 µM
same,TGI,NCI-H226 lung,> 100 µM
same,GI50,U251 CNS,2.42 µM
same,TGI,U251 CNS,5.16 µM
same,GI50,RXF 393 renal,2.16 µM
same,TGI,RXF 393 renal,7.58 µM
same,GI50,SK-MEL-28 melanoma,2.22 µM
same,TGI,SK-MEL-28 melanoma,5.2 µM
same,GI50,COLO 205 colon,1.53 µM
same,TGI,COLO 205 colon,2.95 µM
same,GI50,HS 578T breast,19 µM
same,TGI,HS 578T breast,52.8 µM
same,GI50,SNB-19 CNS,2.88 µM
same,TGI,SNB-19 CNS,10.4 µM
